Experimental data published in patent US10420731B1, “Method of synthesizing lignin-based nanocompositions” (KING SAUD UNIVERSITY, priority 2019, dated 2019).

How the values were obtained:
Caco-2 cells = test: MTT cell viability assay; format: cell-based, human; details: CUR 50 μM and 80 μM, 24 h, MTT (FIG. 9)
Method: Differentiated Caco-2 cells (ATCC, Rockville, Md., USA) were maintained in DMEM (4.5 g/L glucose) medium supplemented with 20% FBS (HyClone; Thermo Scientific, Waltham, Mass., USA), 1% non-essential amino acids, 1% L-glutamine, 1% streptomycin (100 μg/ml) and penicillin (100 IU/ml). The growth medium was changed every day in the first two weeks followed by three times a week.
Caco-2 cell line was transferred into 96-well plates, at a density of 5×10^4 cells per well. After cell adhesion, the culture media was removed and the cells were incubated with 250 μL of culture media containing a concentration range from 10 μM to 300 μM of CUR as free, CUR loaded LG NPs and equivalent unloaded LG NPs.
For free CUR, the samples were prepared from a stock solution in DMSO with appropriate dilutions to reach a maximum of 2% (v/v) of DMSO in each well. After a 24 h incubation period, the supernatant was removed and replaced by 100 μL of MTT solution (0.5 mg/ml) at (37 C°, 5% CO2) to allow MTT to be metabolized. […] Optical density was read at a wavelength of 570 nm using a microplate reader (ELX 800, Bio-Tek Instruments, Winooski, Vt., USA).
The induced cytotoxicity was calculated by comparing the optical density (OD) values against control wells. […] All measurements were performed in triplicate and the means±standard deviation (SD) were calculated.

Caco-2 cell monolayer = details: in-vitro Caco-2 model system, previously known; cited from earlier work
[1] = reported; cited from earlier work
[2] = prior study; cited from earlier work

In the case of `COc1cc(/C=C/C(=O)CC(=O)/C=C/c2ccc(O)c(OC)c2)ccc1O` [curcumin], the Cell viability (Caco-2 cells) is given as “below 50%”, the Papp (Caco-2 cell monolayer) is given as < 3.18 ×10⁻⁶ cm/s and the “log P” value [1] is given as 3.7. For the same compound, the Oral bioavailability [2] was 1%.
